The text below walks through data of patent publication US10981926B2 (Janssen Pharmaceutica NV, priority 2016, dated 2021).

SMILES strings stand for the structures.

Common to all, as to assay type: cell-based
The target in experiment [1] is T1, wild-type Androgen Receptor (AR-wt) (Homo sapiens (Human), UniProt P10275). Put plainly: LNCaP-AR-wt ANT reporter assay (antagonist mode). Conditions: for IC50: pIC50 = −Log10(IC50 in Molar), read-out: LNCaP-AR-wt ANT pIC50 (converted); for Emax: read-out: LNCaP-AR-wt ANT MAX % Inh. In general terms: In a reporter assay the amount or activity of a reporter protein is the signal.

The target in experiment [2] is T1, wild-type Androgen Receptor (AR-wt). Put plainly: LNCaP-AR-wt AG reporter assay (agonist mode). Conditions: for EC50: pEC50 = −Log10(EC50 in Molar), read-out: LNCaP-AR-wt AG pEC50 (converted); for Emax: read-out: LNCaP-AR-wt AG MAX % Stim.
Experiment [3] deals with T2, F876L mutant Androgen Receptor (AR-F876L) (Homo sapiens (Human), UniProt P10275, F877L). Description: LNCaP-AR-F876L ANT reporter assay (antagonist mode). Particulars: for IC50: pIC50 = −Log10(IC50 in Molar), read-out: LNCaP-AR-F876L ANT pIC50 (converted); for Emax: read-out: LNCaP-AR-F876L ANT MAX % Inh.
In experiment [4] the target is T2, F876L mutant Androgen Receptor (AR-F876L). Description: LNCaP-AR-F876L AG reporter assay (agonist mode). Particulars: for EC50: pEC50 = −Log10(EC50 in Molar), read-out: LNCaP-AR-F876L AG pEC50 (converted); for Emax: read-out: LNCaP-AR-F876L AG MAX % Stim.
Setting [5] is: maximum % inhibition of R1881 control response over the tested concentration range.
[6] abbreviates: maximum % stimulation (agonist response) over the tested concentration range.
Setting [7] is: antagonist mode, maximum % inhibition of R1881 control response over tested concentration range.
The mark [8] stands for this setting: agonist mode, maximum % stimulation over tested concentration range.

T2 sequence (P10275 whole entry F877L): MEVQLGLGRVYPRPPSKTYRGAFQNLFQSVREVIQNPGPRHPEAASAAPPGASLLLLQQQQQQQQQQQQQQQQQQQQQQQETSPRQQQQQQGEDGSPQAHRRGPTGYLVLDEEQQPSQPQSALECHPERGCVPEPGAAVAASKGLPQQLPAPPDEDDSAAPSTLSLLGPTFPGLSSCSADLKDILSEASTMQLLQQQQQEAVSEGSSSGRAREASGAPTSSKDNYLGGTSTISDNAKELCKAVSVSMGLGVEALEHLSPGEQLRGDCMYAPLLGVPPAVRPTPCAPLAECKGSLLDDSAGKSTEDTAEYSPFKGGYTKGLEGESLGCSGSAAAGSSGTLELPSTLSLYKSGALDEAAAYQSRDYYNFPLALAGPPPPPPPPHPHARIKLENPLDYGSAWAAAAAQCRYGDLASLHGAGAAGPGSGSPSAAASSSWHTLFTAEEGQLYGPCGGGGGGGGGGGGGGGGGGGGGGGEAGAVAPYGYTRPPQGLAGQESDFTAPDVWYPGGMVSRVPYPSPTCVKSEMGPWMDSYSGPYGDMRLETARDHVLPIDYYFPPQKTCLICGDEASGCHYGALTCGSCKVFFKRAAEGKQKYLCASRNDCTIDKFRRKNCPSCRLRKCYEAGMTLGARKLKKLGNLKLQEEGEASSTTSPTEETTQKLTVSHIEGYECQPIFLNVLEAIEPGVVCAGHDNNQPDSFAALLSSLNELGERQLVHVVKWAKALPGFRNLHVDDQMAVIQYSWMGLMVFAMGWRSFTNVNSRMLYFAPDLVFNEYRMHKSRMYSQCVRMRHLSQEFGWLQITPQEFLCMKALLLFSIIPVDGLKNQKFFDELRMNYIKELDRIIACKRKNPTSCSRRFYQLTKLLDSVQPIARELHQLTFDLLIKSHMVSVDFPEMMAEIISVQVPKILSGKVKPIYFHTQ
T1 sequence (P10275 whole entry): as the sequence (P10275 whole entry F877L) above, with L877F counted along it

Turning to `CC(C)(C)OC(=O)N1CCC(n2cc3cc(N4C(=S)N(c5cnc(C#N)c(C(F)(F)F)c5)C(=O)C45CCC5)ccc3n2)CC1` [Cpd 121, tert-butyl 4-[5-[6-[6-cyano-5-(trifluoromethyl)-3-pyridyl]-5-oxo-7-thioxo-6,8-diazaspiro[3.4]octan-8-yl]indazol-2-yl]piperidine-1-carboxylate], the results for the IC50 in experiment [1] (antagonist mode) and in experiment [3] (antagonist mode) were 138 nM and 129 nM, respectively. Also, the Emax in experiment [1] (setting [5]) was 97.9%; in experiment [2] (setting [6]) it was -0.1%; in experiment [3] (setting [5]) it was 99.8%; in experiment [4] (setting [6]), 0.5%. Besides, the EC50 in experiment [2] (agonist mode) and in experiment [4] (agonist mode) was greater than 15100 nM throughout.
As for `CC1(Oc2ccc(N3C(=S)N(c4cnc(C#N)c(C(F)(F)F)c4)C(=O)C34CCC4)cc2)CCNCC1` [Cpd 140, 5-[8-[4-[(4-methyl-4-piperidyl)oxy]phenyl]-5-oxo-7-thioxo-6,8-diazaspiro[3.4]octan-6-yl]-3-(trifluoromethyl)pyridine-2-carbonitrile], the values for the IC50 in experiment [1] (antagonist mode) and in experiment [3] (antagonist mode) were 1000 nM and 339 nM, respectively. For the same molecule, the Emax is 99.9% in experiment [1] (setting [5]), 0.3% in experiment [2] (setting [6]), 99.5% in experiment [3] (setting [5]) and 0% in experiment [4] (setting [6]). Besides, the EC50 in experiment [2] (agonist mode) and in experiment [4] (agonist mode) was greater than 15100 nM each time.
Consider `CN1CC[C@H](CNC(=O)c2ccc(N3C(=S)N(c4cnc(C#N)c(C(F)(F)F)c4)C(=O)C34CCC4)cc2F)C1` [Cpd 218, 4-[6-[6-cyano-5-(trifluoromethyl)-3-pyridyl]-5-oxo-7-thioxo-6,8-diazaspiro[3.4]octan-8-yl]-2-fluoro-N-[[(3R)-1-methylpyrrolidin-3-yl]methyl]benzamide], for which the Emax in experiment [1] (setting [7]) was 102%; in experiment [2] (setting [8]), 0%; in experiment [3] (setting [7]), 99.6%; in experiment [4] (setting [8]), 0.1%. Further, the IC50 in experiment [1] (antagonist mode) is 1170 nM; in experiment [3] (antagonist mode) it was 912 nM. The EC50 in experiment [2] (agonist mode) and in experiment [4] (agonist mode) was greater than 15100 nM each time.
On to `N#Cc1ncc(N2C(=O)C3(CCC3)N(c3ccc(OC4CCN5CCCC5C4)cc3)C2=S)cc1C(F)(F)F` (centres unmarked) [Cpd 156, 5-[8-[4-(1,2,3,5,6,7,8,8a-octahydroindolizin-7-yloxy)phenyl]-5-oxo-7-thioxo-6,8-diazaspiro[3.4]octan-6-yl]-3-(trifluoromethyl)pyridine-2-carbonitrile], for which the IC50 was 282 nM in experiment [1] (antagonist mode) and 178 nM in experiment [3] (antagonist mode). For the same molecule, the Emax came to 100% in experiment [1] (setting [5]), 1% in experiment [2] (setting [6]), 101% in experiment [3] (setting [5]) and 0.9% in experiment [4] (setting [6]). Besides, the EC50 in experiment [2] (agonist mode) and in experiment [4] (agonist mode) was greater than 15100 nM each time.
`N#Cc1ncc(N2C(=O)C3(CCC3)N(c3ccc(OC4CC5CC4CN5)cc3)C2=S)cc1C(F)(F)F` [Cpd 150, (R,S)-5-[8-[4-(2-azabicyclo[2.2.1]heptan-5-yloxy)phenyl]-5-oxo-7-thioxo-6,8-diazaspiro[3.4]octan-6-yl]-3-(trifluoromethyl)pyridine-2-carbonitrile]: the values for the IC50 in experiment [1] (antagonist mode) and in experiment [3] (antagonist mode) were 490 nM and 245 nM, respectively. For the same molecule, the Emax is 102% in experiment [1] (setting [5]), 0.4% in experiment [2] (setting [6]), 103% in experiment [3] (setting [5]) and -0.2% in experiment [4] (setting [6]). The EC50 in experiment [2] (agonist mode) and in experiment [4] (agonist mode) was greater than 15100 nM each time.
For the molecule `Cc1cc(N2C(=O)C3(CCC3)N(c3ccc(OCCCN(C)C)nc3)C2=S)cnc1C#N` [Cpd 27, 5-[8-[6-[3-(dimethylamino)propoxy]-3-pyridyl]-5-oxo-7-thioxo-6,8-diazaspiro[3.4]octan-6-yl]-3-methyl-pyridine-2-carbonitrile], the values for the IC50 in experiment [1] (antagonist mode) and in experiment [3] (antagonist mode) were 219 nM and 107 nM, respectively. The Emax was 101% in experiment [1] (setting [5]), 0% in experiment [2] (setting [6]), 101% in experiment [3] (setting [5]) and -0.1% in experiment [4] (setting [6]). The EC50 in experiment [2] (agonist mode) and in experiment [4] (agonist mode) was greater than 15100 nM throughout.
On to `CC(=O)N1CCC(Cn2ncc3cc(N4C(=S)N(c5cnc(C#N)c(C(F)(F)F)c5)C(=O)C45CCC5)ccc32)CC1` [Cpd 124, 5-[8-[1-[(1-acetyl-4-piperidyl)methyl]indazol-5-yl]-5-oxo-7-thioxo-6,8-diazaspiro[3.4]octan-6-yl]-3-(trifluoromethyl)pyridine-2-carbonitrile], for which the IC50 was 115 nM in experiment [1] (antagonist mode) and 39.8 nM in experiment [3] (antagonist mode). For the same molecule, the Emax in experiment [1] (setting [5]) was 103%; in experiment [2] (setting [6]) it was 0.3%; in experiment [3] (setting [5]), 103%; in experiment [4] (setting [6]), 0.5%. The EC50 in experiment [2] (agonist mode) and in experiment [4] (agonist mode) was greater than 15100 nM in each case.
For the molecule `CN1CCC(CN(C)C(=O)c2ccc(N3C(=S)N(c4cnc(C#N)c(C(F)(F)F)c4)C(=O)C34CCC4)cc2)CC1` [Cpd 209, 4-[6-[6-cyano-5-(trifluoromethyl)-3-pyridyl]-5-oxo-7-thioxo-6,8-diazaspiro[3.4]octan-8-yl]-N-methyl-N-[(1-methyl-4-piperidyl)methyl]benzamide], the Emax in experiment [1] (setting [7]) was 99%; in experiment [2] (setting [8]) it was -0.1%; in experiment [3] (setting [7]), 100%; in experiment [4] (setting [8]) it was 0%. The IC50 in experiment [1] (antagonist mode) is 457 nM; in experiment [3] (antagonist mode), 417 nM. Besides, the EC50 in experiment [2] (agonist mode) and in experiment [4] (agonist mode) was greater than 15100 nM each time.
On to `COCCn1cc2ccc(N3C(=S)N(c4cnc(C#N)c(C(F)(F)F)c4)C(=O)C34CCC4)cc2n1` [Cpd 179, 5-[8-[2-(2-methoxyethyl)indazol-6-yl]-5-oxo-7-thioxo-6,8-diazaspiro[3.4]octan-6-yl]-3-(trifluoromethyl)pyridine-2-carbonitrile], for which the IC50 in experiment [1] (antagonist mode) is 1230 nM; in experiment [3] (antagonist mode) it was 468 nM. The Emax in experiment [1] (setting [5]) is 100%; in experiment [2] (setting [6]) it was -0.2%; in experiment [3] (setting [5]), 101%; in experiment [4] (setting [6]), -0.2%. Further, the EC50 in experiment [2] (agonist mode) and in experiment [4] (agonist mode) was greater than 15100 nM each time.
With `CN1CC2CC1CC2Oc1ccc(N2C(=S)N(c3cnc(C#N)c(C(F)(F)F)c3)C(=O)C23CCC3)cc1` [Cpd 176, (R,S)-5-[8-[4-[(2-methyl-2-azabicyclo[2.2.1]heptan-5-yl)oxy]phenyl]-5-oxo-7-thioxo-6,8-diazaspiro[3.4]octan-6-yl]-3-(trifluoromethyl)pyridine-2-carbonitrile], the IC50 in experiment [1] (antagonist mode) was 479 nM; in experiment [3] (antagonist mode) it was 269 nM. The Emax in experiment [1] (setting [5]) was 104%; in experiment [2] (setting [6]), 0.3%; in experiment [3] (setting [5]), 101%; in experiment [4] (setting [6]), 0.1%. Also, the EC50 in experiment [2] (agonist mode) and in experiment [4] (agonist mode) was greater than 15100 nM in each case.
On to `COc1cc(N2C(=O)C3(CCC3)N(c3ccc(CN4CCNCC4)cc3)C2=S)cnc1C#N` [Cpd 229, 3-methoxy-5-[5-oxo-8-[4-(piperazin-1-ylmethyl)phenyl]-7-thioxo-6,8-diazaspiro[3.4]octan-6-yl]pyridine-2-carbonitrile], for which the Emax amounted to 0% in experiment [2] (setting [8]), 101% in experiment [3] (setting [7]) and 0% in experiment [4] (setting [8]). Also, the EC50 in experiment [2] (agonist mode) and in experiment [4] (agonist mode) was greater than 15100 nM throughout. Also, in experiment [3] (antagonist mode), the IC50 was 129 nM.
